What was measured:
blackgrass = assay: Test B pre/postemergence blackgrass; type: in vivo, Alopecurus myosuroides
How it was run: (§1)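 Herbicidal effect was estimated by eye on a ten-point control scale after plants spent twelve to sixteen days in a greenhouse following soil or foliar treatment. Foliar sprays targeted plants at one to four leaves; all doses were formulated in a non-phytotoxic solvent with surfactant.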

giant foxtail = assay: Test B pre/postemergence giant foxtail; type: in vivo, Setaria faberii
How it was run: as §1

crabgrass = assay: Test B pre/postemergence crabgrass; type: in vivo, Digitaria sanguinalis
How it was run: as §1

wheat = assay: Test B pre/postemergence wheat; type: in vivo, Triticum aestivum; settings: Preemergence
How it was run: as §1

soybean = assay: Test B pre/postemergence soybean; type: in vivo, Glycine max; settings: Preemergence
How it was run: as §1

corn = assay: Test B pre/postemergence corn; type: in vivo, Zea mays
How it was run: as §1

velvetleaf = assay: Test B pre/postemergence velvetleaf; type: in vivo, Abutilon theophrasti; settings: Preemergence
How it was run: as §1

bedstraw = assay: Test B pre/postemergence bedstraw; type: in vivo, Galium aparine
How it was run: as §1

cocklebur = assay: Test B pre/postemergence cocklebur; type: in vivo, Xanthium strumarium
How it was run: as §1

sugar beet = assay: Test B pre/postemergence sugar beet; type: in vivo, Beta vulgaris; settings: Preemergence
How it was run: as §1

duck salad = assay: Test B flood test duck salad; type: in vivo, Heteranthera limosa
How it was run: (§2)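 Flood test on plants grown to the 2-leaf stage; treated plants kept in greenhouse twelve to sixteen days, then visually rated against controls on a 0 (no effect) to 10 (complete control) scale.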

morningglory = assay: Test B pre/postemergence morningglory; type: in vivo, Ipomoea hederacea
How it was run: as §1

bamyardgrass = assay: Test B flood test barnyardgrass; type: in vivo, Echinochloa crus-galli
How it was run: as §2

pigweed = assay: Test B pre/postemergence pigweed; type: in vivo, Amaranthus retroflexus
How it was run: as §1

rice = assay: Test B flood test rice; type: in vivo, Oryza sativa
How it was run: as §2

rape = assay: Test B pre/postemergence rape; type: in vivo, Brassica napus
How it was run: as §1

surinam grass = assay: Test B pre/postemergence surinam grass; type: in vivo, Brachiaria decumbens
How it was run: as §1

wild oat = assay: Test B pre/postemergence wild oat; type: in vivo, Avena fatua; settings: Preemergence
How it was run: as §1

purple nutsedge = assay: Test B pre/postemergence purple nutsedge; type: in vivo, Cyperus rotundus
How it was run: as §1

smallflower flatsedge = assay: Test B flood test smallflower flatsedge; type: in vivo, Cyperus difformis
How it was run: as §2

[1] = Preemergence, Rate 31 g/ha, visual rating, scale 0 to 10 (0 no effect, 10 complete control)
[2] = Preemergence, Rate 62 g/ha, scale of 0 to 10 where 0 is no effect and 10 is complete control
[3] = Preemergence, Rate 250 g/ha, scale of 0 to 10 where 0 is no effect and 10 is complete control
[4] = Rate 31 g/ha, Postemergence, scale 0 to 10
[5] = Rate 62 g/ha, Postemergence, scale of 0 to 10 where 0 is no effect and 10 is complete control
[6] = Rate 125 g/ha, Postemergence, scale 0 to 10
[7] = Rate 125 g/ha, Preemergence, scale of 0 to 10 where 0 is no effect and 10 is complete control
[8] = Rate 31 g/ha, visual rating, scale 0 to 10 (0 no effect, 10 complete control)
[9] = Rate 62 g/ha, scale of 0 to 10 where 0 is no effect and 10 is complete control
[10] = Rate 250 g/ha, scale of 0 to 10 where 0 is no effect and 10 is complete control
[11] = Rate 125 g/ha, scale of 0 to 10 where 0 is no effect and 10 is complete control
[12] = Rate 62 g/ha, headed Pre-emergence (flood test species), scale 0 to 10 (0 no effect, 10 complete control)
[13] = Rate 125 g/ha, Pre-emergence, flood test species, scale 0 to 10 where 0 is no effect and 10 is complete control
[14] = Rate 250 g/ha, Pre-emergence, flood-test species, scale 0 to 10, 0 is no effect, 10 is complete control
[15] = Rate 500 g/ha, Pre-emergence, flood test species, scale 0 to 10 (0 no effect, 10 complete control)

CCN(CC)C(=O)Cn1c(=O)on(C(=O)N(c2ccc(F)cc2)C(C)C)c1=O [Compound 264]
Blackgrass plant response rating (blackgrass; [1]): 0
Blackgrass plant response rating (blackgrass; [2]): 0
Blackgrass plant response rating (blackgrass; [3]): 4
Blackgrass plant response rating (blackgrass; [4]): 0
Blackgrass plant response rating (blackgrass; [5]): 2
Blackgrass plant response rating (blackgrass; [6]): 2
Blackgrass plant response rating (blackgrass; [7]): 0
Plant response rating (0 to 10; 0 is no effect, 10 is complete control), Blackgrass (blackgrass; Rate 250 g/ha, Postemergence): 3
Giant foxtail plant response rating (giant foxtail; [1]): 0
Giant foxtail plant response rating (giant foxtail; [2]): 2
Giant foxtail plant response rating (giant foxtail; [3]): 7
Giant foxtail plant response rating (giant foxtail; [4]): 0
Giant foxtail plant response rating (giant foxtail; [7]): 7
Plant response rating (0 to 10; 0 is no effect, 10 is complete control), Giant foxtail (giant foxtail; Rate 250 g/ha, Postemergence): 0
Crabgrass plant response rating (crabgrass; [1]): 0
Crabgrass plant response rating (crabgrass; [2]): 0
Crabgrass plant response rating (crabgrass; [3]): 3
Crabgrass plant response rating (crabgrass; [4]): 0
Crabgrass plant response rating (crabgrass; [7]): 2
Plant response rating (0 to 10; 0 is no effect, 10 is complete control), Crabgrass (crabgrass; Rate 250 g/ha, Postemergence): 0
Wheat plant response rating (wheat; [8]): 0
Wheat plant response rating (wheat; [9]): 0
Wheat plant response rating (wheat; [10]): 2
Wheat plant response rating (wheat; [11]): 0
Soybean plant response rating (soybean; [8]): 0
Soybean plant response rating (soybean; [9]): 0
Soybean plant response rating (soybean; [10]): 3
Soybean plant response rating (soybean; [11]): 0
Corn plant response rating (corn; [1]): 0
Corn plant response rating (corn; [2]): 0
Corn plant response rating (corn; [3]): 0
Corn plant response rating (corn; [4]): 0
Corn plant response rating (corn; [5]): 0
Corn plant response rating (corn; [6]): 0
Corn plant response rating (corn; [7]): 0
Plant response rating (0 to 10; 0 is no effect, 10 is complete control), Corn (corn; Rate 250 g/ha, Postemergence): 0
Velvetleaf plant response rating (velvetleaf; [8]): 0
Velvetleaf plant response rating (velvetleaf; [9]): 0
Velvetleaf plant response rating (velvetleaf; [10]): 0
Velvetleaf plant response rating (velvetleaf; [11]): 0
Bedstraw plant response rating (bedstraw; [1]): 0
Bedstraw plant response rating (bedstraw; [2]): 0
Bedstraw plant response rating (bedstraw; [3]): 0
Bedstraw plant response rating (bedstraw; [4]): 0
Bedstraw plant response rating (bedstraw; [5]): 0
Bedstraw plant response rating (bedstraw; [6]): 6
Bedstraw plant response rating (bedstraw; [7]): 0
Plant response rating (0 to 10; 0 is no effect, 10 is complete control), Bedstraw (bedstraw; Rate 250 g/ha, Postemergence): 6
Cocklebur plant response rating (cocklebur; [1]): 0
Cocklebur plant response rating (cocklebur; [2]): 0
Cocklebur plant response rating (cocklebur; [3]): 0
Cocklebur plant response rating (cocklebur; [4]): 0
Cocklebur plant response rating (cocklebur; [5]): 0
Cocklebur plant response rating (cocklebur; [6]): 0
Cocklebur plant response rating (cocklebur; [7]): 0
Plant response rating (0 to 10; 0 is no effect, 10 is complete control), Cocklebur (cocklebur; Rate 250 g/ha, Postemergence): 0
Sugarbeets plant response rating (sugar beet; [8]): 0
Sugarbeets plant response rating (sugar beet; [9]): 0
Sugarbeets plant response rating (sugar beet; [10]): 1
Sugarbeets plant response rating (sugar beet; [11]): 0
Ducksalad plant response rating (duck salad; [12]): 0
Ducksalad plant response rating (duck salad; [13]): 0
Ducksalad plant response rating (duck salad; [14]): 0
Ducksalad plant response rating (duck salad; [15]): 0
Morningglory plant response rating (morningglory; [1]): 0
Morningglory plant response rating (morningglory; [2]): 0
Morningglory plant response rating (morningglory; [3]): 0
Morningglory plant response rating (morningglory; [4]): 6
Morningglory plant response rating (morningglory; [7]): 0
Plant response rating (0 to 10; 0 is no effect, 10 is complete control), Morningglory (morningglory; Rate 250 g/ha, Postemergence): 10
Barnyardgrass plant response rating (bamyardgrass; [12]): 0
Barnyardgrass plant response rating (bamyardgrass; [13]): 0
Barnyardgrass plant response rating (bamyardgrass; [14]): 0
Barnyardgrass plant response rating (bamyardgrass; [15]): 0
Redroot pigweed plant response rating (pigweed; [1]): 0
Redroot pigweed plant response rating (pigweed; [2]): 0
Redroot pigweed plant response rating (pigweed; [3]): 0
Redroot pigweed plant response rating (pigweed; [4]): 0
Redroot pigweed plant response rating (pigweed; [7]): 0
Plant response rating (0 to 10; 0 is no effect, 10 is complete control), Redroot pigweed (pigweed; Rate 250 g/ha, Postemergence): 0
Rice plant response rating (rice; [12]): 0
Rice plant response rating (rice; [13]): 0
Rice plant response rating (rice; [14]): 0
Rice plant response rating (rice; [15]): 1
Rape plant response rating (rape; [1]): 0
Rape plant response rating (rape; [2]): 0
Rape plant response rating (rape; [3]): 0
Rape plant response rating (rape; [4]): 0
Rape plant response rating (rape; [7]): 0
Plant response rating (0 to 10; 0 is no effect, 10 is complete control), Rape (rape; Rate 250 g/ha, Postemergence): 0
B. signalgrass plant response rating (surinam grass; [1]): 0
B. signalgrass plant response rating (surinam grass; [2]): 0
B. signalgrass plant response rating (surinam grass; [3]): 5
B. signalgrass plant response rating (surinam grass; [4]): 0
B. signalgrass plant response rating (surinam grass; [5]): 0
B. signalgrass plant response rating (surinam grass; Rate 125 g/ha, Postemergence, scale 0 (no effect) to 10 (complete control)): 0
B. signalgrass plant response rating (surinam grass; [7]): 0
Plant response rating (0 to 10; 0 is no effect, 10 is complete control), B. signalgrass (surinam grass; Rate 250 g/ha, Postemergence): 0
Wild oats plant response rating (wild oat; [8]): 0
Wild oats plant response rating (wild oat; [9]): 2
Wild oats plant response rating (wild oat; [10]): 5
Wild oats plant response rating (wild oat; [11]): 4
Nutsedge plant response rating (purple nutsedge; [1]): 0
Nutsedge plant response rating (purple nutsedge; [3]): 0
Nutsedge plant response rating (purple nutsedge; [4]): 0
Plant response rating (0 to 10; 0 is no effect, 10 is complete control), Nutsedge (purple nutsedge; Rate 250 g/ha, Postemergence): 0
S. Flatsedge plant response rating (smallflower flatsedge; [12]): 0
S. Flatsedge plant response rating (smallflower flatsedge; [13]): 0
S. Flatsedge plant response rating (smallflower flatsedge; [14]): 0
S. Flatsedge plant response rating (smallflower flatsedge; [15]): 0

Source: patent publication US6737383B1, “Herbicidal oxadiazolidines” (priority 1999, dated 2004)
